According to paper PMC6031871 (Bioorganic & medicinal chemistry, 2010):
Read-outs that look alike come from different tables or passages of the source.

Assays:
Format in all cases: biochemical
[1] = biological target: T1, HCPTP-A (Homo sapiens, UniProt P24666); experiment: pNPP phosphatase inhibition assay, HCPTP-A
T1 sequence (P24666 1-158): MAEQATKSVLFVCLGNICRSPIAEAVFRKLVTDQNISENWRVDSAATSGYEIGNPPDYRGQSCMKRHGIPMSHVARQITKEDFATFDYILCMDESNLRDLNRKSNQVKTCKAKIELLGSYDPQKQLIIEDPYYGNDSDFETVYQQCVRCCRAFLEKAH

[2] = biological target: T2, HCPTP-B (Homo sapiens, UniProt P24666); experiment: pNPP phosphatase inhibition assay, HCPTP-B; details: for inhibition at 100 µM: pH 5, read-out: inhibition of HCPTP-B activity
T2 sequence (P24666 1-158 isoform P24666-2): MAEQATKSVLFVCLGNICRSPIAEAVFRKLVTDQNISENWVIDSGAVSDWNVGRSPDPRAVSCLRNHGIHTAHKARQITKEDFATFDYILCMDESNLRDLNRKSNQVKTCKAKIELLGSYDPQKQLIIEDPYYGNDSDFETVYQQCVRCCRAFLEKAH

[3] = biological target: T3, HCPTP (Homo sapiens, UniProt P24666); experiment: single concentration screen repeated with 0.01% Triton X-100; details: 0.01% Triton X-100 and reducing agents
T3 sequence (P24666 1-158): T1 sequence (P24666 1-158)

[4] = biological target: T4, HCPTP (Homo sapiens, UniProt P24666); experiment: pNPP single concentration screen, isoform not specified; details: pH 5, read-out: elevation of the activity of HCPTP
T4 sequence (P24666 2-158): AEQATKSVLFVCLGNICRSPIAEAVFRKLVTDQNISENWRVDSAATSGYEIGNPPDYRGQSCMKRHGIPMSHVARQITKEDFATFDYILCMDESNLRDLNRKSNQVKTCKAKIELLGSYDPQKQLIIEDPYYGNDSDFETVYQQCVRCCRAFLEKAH

[5] = IC50 HCPTP-A pH 5, pH 5 (Table II)
[6] = IC50 HCPTP-A, pH 5 (Table I), pNPP substrate, 25 °C
[7] = pH 5, read-out: inhibition of HCPTP-A activity, 100 μM compound, pH 5
[8] = read-out: IC50 HCPTP-A pH 7, pH 7 (Table II)
[9] = IC50 HCPTP-B, pH 5 (Table I), pNPP substrate, 25 °C
[10] = IC50 HCPTP-A pH 5 (dash class), pH 5 (Table II), dash entries
[11] = pH 7, read-out: reduction of the activity of HCPTP-A, 100 μM compound, pH 7
[12] = pH 7, read-out: reduction of the activity of HCPTP-A
[13] = pH 5, read-out: inhibition of HCPTP-A activity

O=C1C2=C(CC=CC2)C(=O)c2c(Nc3ccc(S(=O)(=O)O)cc3)ccc(Nc3ccccc3)c21 [Compound 128437]
IC50 [1, 5]: 5.5 µM
IC50 [1, 6]: 5.5 µM
inhibition at 100 µM [1, 7]: ≥ 10%
IC50 [1, 8]: 3.6 µM
IC50 [2, 9]: 4.5 µM
inhibition at 100 µM [2]: ≥ 10%
level of inhibition in the presence of detergent [3]: maintained an approximately constant level of inhibition

O=C(O)/C(Cc1ccnc2ccccc12)=N/O [Compound 85359]
IC50 [1, 10]: > 100 µM
inhibition at 100 µM [1, 7]: ≥ 10%
IC50 [1, 8]: 72 µM
inhibition at 100 µM [2]: ≥ 10%

NC(Cc1c[nH]c2ccc([N+](=O)[O-])cc12)C(=O)O (stereo not shown) [Compound 58612]
inhibition at 100 µM [1, 11]: ≥ 10%

NC(c1c[nH]c2ccccc12)P(=O)(O)O (stereo not shown) [Compound 669581]
inhibition at 100 µM [1, 11]: ≥ 10%

CCc1ccc(CCC(=O)O)nc1 [Compound 35989]
reduction of the activity of HCPTP-A ([1]; 100 μM compound, pH 7): at least 10%

Nc1cncc(Nc2ccc(S(N)(=O)=O)cc2)n1 [Compound 135784]
inhibition at 100 µM [1, 11]: ≥ 10%

CC1CN(CC(N)C(=O)O)C(=O)NC1=O (stereo not shown) [Compound 151831]
inhibition at 100 µM [1, 11]: ≥ 10%

CC(=O)Nc1ccc(-c2ccc3[nH]c(=O)cc(C)c3c2)cc1 [Compound 109816]
inhibition at 100 µM [1, 11]: ≥ 10%
activation at 100 µM [4]: ≥ 10%

Cc1ncc(OP(=O)(O)O)c(C)c1O [Compound 29870]
inhibition at 100 µM [1, 7]: ≥ 10%
inhibition at 100 µM [2]: ≥ 10%

CC1OC(OC2C(O)C(O)C(O)C(O)C2O)C(N)CC1NC(=N)C(=O)O (stereo not shown) [Compound 100858]
inhibition at 100 µM [1, 11]: ≥ 10%

Cn1c(=O)c2[nH]c(CCC(=O)O)nc2n(C)c1=O [Compound 36534]
inhibition at 100 µM [1, 11]: ≥ 10%

Nc1nc(-c2ccc3ccccc3c2)cc(-c2cc(-c3ccc4ccccc4c3)nc(N)n2)n1 [Compound 371878]
inhibition at 100 µM [1, 11]: ≥ 10%

NC(Cc1cc(Br)c(O)c(Br)c1)C(=O)O (stereo not shown) [Compound 210786]
IC50 [1, 10]: > 100 µM
IC50 [1, 8]: 4.6 µM
activation at 100 µM [4]: ≥ 10%

CC12CCC(=O)C=C1CCC1C2CCC2(C)C(C(=O)Cn3cnc4c(=S)nc[nH]c43)CCC12 (stereo not shown) [Compound 114792]
inhibition at 100 µM [1, 7]: ≥ 10%
inhibition at 100 µM [2]: ≥ 10%

NC(c1ccccc1)P(=O)(O)O (stereo not shown) [Compound 133811]
inhibition at 100 µM [1, 7]: ≥ 10%
inhibition at 100 µM [2]: ≥ 10%

Nc1nc(N)c(N=Nc2ccc([As](=O)(O)O)c(O)c2)c(N)n1 [Compound 117281]
inhibition at 100 µM [1, 12]: ≥ 10%

NC(Cc1c[nH]c2cc([N+](=O)[O-])ccc12)C(=O)O (stereo not shown) [Compound 65763]
IC50 [1, 10]: > 100 µM
IC50 [1, 8]: 51 µM
activation at 100 µM [4]: ≥ 10%

NC1CCCCC1P(=O)(O)O (stereo not shown) [Compound 320308]
inhibition at 100 µM [1, 13]: ≥ 10%
inhibition at 100 µM [2]: ≥ 10%

O=S(=O)(O)c1ccc2c(/N=N/c3c(O)ccc4ccccc34)cccc2c1 [Compound 45576]
IC50 [1, 5]: 5.5 µM
IC50 [1, 6]: 5.5 µM
inhibition at 100 µM [1, 7]: ≥ 10%
IC50 [2, 9]: 3.9 µM
inhibition at 100 µM [2]: ≥ 10%
level of inhibition in the presence of detergent [3]: maintained an approximately constant level of inhibition

C[C@]12CC[C@@H]3c4ccc(O)cc4CC[C@H]3[C@@H]1C/C(=N\O)[C@@H]2O [Compound 112737]
inhibition at 100 µM [1, 11]: ≥ 10%

C[S+](=N)([O-])CCP(=O)(O)O (stereo not shown) [Compound 359098]
inhibition at 100 µM [1, 12]: ≥ 10%

[O]=[V]([OH])([OH])[OH] [orthovanadate, reference compound]
IC50 ([1]; read-out: IC50 HCPTP-A, general phosphatase inhibitor, pH not stated): 11 µM
IC50 ([2]; read-out: IC50 HCPTP-B, general phosphatase inhibitor, pH not stated): 61 µM

CC[C@H]1CN2CCc3cc(OC)c(OC)cc3C2C[C@@H]1C[C@@H]1NCCc2c1[nH]c1ccc(O)cc21 (stereo partly shown) [Compound 131547]
inhibition at 100 µM [1, 12]: ≥ 10%

CC12CC(=O)C3C(CCC4=CC(=O)CCC43C)C1CC=C2CC(=O)O (stereo not shown) [Compound 86008]
inhibition at 100 µM [1, 11]: ≥ 10%

NC(Cc1ccccc1)P(=O)(O)O (stereo not shown) [Compound 30080]
IC50 [1, 5]: 223 µM
IC50 ([1]; IC50 HCPTP-A pH 7 (dash class), pH 7 (Table II), dash entries): > 100 µM
IC50 [1, 6]: 223 µM
inhibition at 100 µM [1, 13]: ≥ 10%
inhibition at 100 µM [1, 12]: ≥ 10%
IC50 [2, 9]: 139 µM
inhibition at 100 µM [2]: ≥ 10%

C[C@]12CC[C@@H]3c4ccc(OP(=O)(O)O)cc4CC[C@H]3[C@@H]1CCC2=O [Compound 18320]
inhibition at 100 µM [1, 11]: ≥ 10%

O=C(O)C1CSC2(CCN(c3ccccc3)CC2)N1 (stereo not shown) [Compound 319095]
IC50 [1, 10]: > 100 µM
IC50 [1, 8]: 4 µM
level of inhibition in the presence of detergent [3]: maintained an approximately constant level of inhibition

O=C(O)CC1NCc2cc3ccccc3nc21 (stereo not shown) [Compound 141566]
IC50 [1, 10]: > 100 µM
IC50 ([1]; IC50 HCPTP-A pH 7, pH 7 (Table II)): 4.8 µM
inhibition at 100 µM [1, 7]: ≥ 10%
inhibition at 100 µM [2]: ≥ 10%

N=C(Cc1ccccc1)NCC(=O)O [Compound 27895]
inhibition at 100 µM [1, 7]: ≥ 10%
inhibition at 100 µM [1, 11]: ≥ 10%
inhibition at 100 µM [2]: ≥ 10%

Oc1cc(O)c2c(c1)OC(c1ccc(O)c(O)c1)C(O)C2c1c(O)cc(O)c2c1OC(c1ccc(O)c(O)c1)C(O)C2 (stereo not shown) [Compound 143099]
activation at 100 µM [4]: ≥ 10%

NC(Cc1ccc2oc3cc(=O)c4ccccc4c-3nc2c1)C(=O)O (stereo not shown) [Compound 643735]
inhibition at 100 µM [1, 7]: ≥ 10%
inhibition at 100 µM [2]: ≥ 10%

N=C(N)NC(=N)Nc1ccc(S(=O)(=O)O)cc1 [Compound 17580]
inhibition at 100 µM [1, 11]: ≥ 10%
